Assay results reported in patent publication US20020090619A1, “Methods for identifying mitochondrial divalent cation transporters” (priority 2000, published 2002).

What was measured:
[1] = ETH 129 mediated cation transport into Quin-2 loaded POPC vesicles; format: biochemical; details: 1.0 mM CaCl2, no Val, FIG. 5
Description: Unilamellar vesicles loaded with Quin-2 were prepared from 1-palmitoyl-2-oleoyl-sn-glycerophosphatidylcholine (POPC) by freeze-thaw extrusion (Erdahl et al., 1994 Biophys. J. 66:1678; Erdahl et al., 1995 Biophys. J. 69:2350). The formation medium contained 5 mM Quin-2 (K+), 10 mM Hepes (K+), pH 7.00, and 100 mM KCl. A high internal K+ concentration was sought to allow the generation of membrane potentials of varying magnitude (see below). The preparations obtained were applied to Sephadex™ G-50 mini-columns (Pharmacia, Piscataway N.J.) and eluted by low speed centrifugation (Fry et al., 1978 Anal. Biochem. 90:809), to replace the external medium with a 10 mM Hepes buffer (Na+), pH 7.00 (Erdahl et al., 1994 Biophys. J. 66:1678; Erdahl et al., 1995 Biophys. J. 69:2350). The nominal concentration of POPC in final preparations was determined as lipid phosphorus (Bartlett, 1959 J Biol. Chem. 234:466) and was near 80 mM. The average diameter of these vesicles was 71 nm as determined by freeze-fracture electron microscopy (Chapman et al., 1990 Chem. Phys. Lipids 55:73). They contained entrapped K+ at approximately 125 mM, as determined by atomic absorption spectroscopy, and Quin-2 at approximately 6 mM. The latter value was determined by titrating lysed vesicles with a standard solution of CaCl2 and was about one third of the expected value (Erdahl et al., 1995 Bipohys. J. 69:3250). The high solute level in the formation medium reduced the efficiency of Quin-2 entrapment by reducing the effectiveness of a freeze-thaw driven solute concentrating mechanism that normally elevates the internal concentrations of solutes, relative to the external medium (Chapman et al., 1990 Chem. Phys. Lipids 55:73; Chapman et al., 1990 Chem. Phys. Lipids 60:201).
POPC vesicles containing Quin-2 were utilized at a nominal phospholipid concentration of 1.0 mM, and at 25° C. The external medium contained polyvalent cation salts as described below, 100 mM NaCl, or mixtures of NaCl and KCl totaling […], and 10 mM Hepes, pH 7.00, unless otherwise noted. The medium pH was adjusted with NaOH that had been passed over Chelex 100 columns to remove contaminating cations (Erdahl et al., 1994 Biophys. J. 66:1678). In most cases an inside negative membrane electrical potential was present during the experiments. This was generated by the presence of 0.5 μM valinomycin (Val), which transports K+ out of the vesicles electrogenically (Erdahl et al., 1994 Biophys. J. 66:1678). The magnitude of the potential was controlled by varying the concentration ratio of Na+ to K+ in the external medium. A TPP+electrode was used to measure the potential (Broekemeier et al, 1998 Biochem. 37:13059), and thereby to verify that the calculated values were obtained. For these purposes the incubation medium contained 2.0 μM TPP.Cl and the entrapped volume was taken to be 2.02 μl/ml at a nominal POPC concentration of 1.0 mM (Chapman et al., 1990 Chem. Phys. Lipids 55:73).
Val was omitted when an imposed membrane potential was not desired, or in some cases 5 μM of the protonophore carbonyl cyanide m-chlorophenylhydrazone (CCP) was present instead of Val.
The transport of polyvalent cations was monitored by difference absorbance measurements which detected formation of the Quin-2:cation complex within the vesicle lumen. An Aminco DW2a spectrophotometer operated in the dual wavelength mode was employed. In addition, an Oriel No. 59800 band pass filter was used between the cuvette and the beam scrambler-photomultiplier assembly to prevent detection of the fluorescent light emitted by Quin-2. The sample wavelength for all cations was 264 nm. The reference wavelengths were at an isosbestic point in the Quin-2/Quin-2:cation complex difference spectrum of interest. These wavelengths varied slightly from cation to cation, as previously described (Erdahl et al., 1996 Biochem. 35:13817). […]

yeast mitochondria = experiment: Membrane potential ΔΨ of isolated yeast mitochondria (safranin O); format: biochemical, Saccharomyces cerevisiae; details: for effect on the depression of ΔΨ produced by ETH 129 plus Ca2+: 60 μM CaCl2, 3.6 μM ETH 129
Description: The yeast strain W303-1A (Saccharomyces cerevisiae) was grown aerobically at 30° C. in a medium containing 2% lactate, 1% yeast extract, 2% peptone, 0.05% dextrose, and 0.01% adenine at pH 5.0, and cells were harvested during the logarithmic phase (A600=1.8−2.2). Mitochondria were isolated from spheroplasts as previously described (Jung et al., 1997 J. Biol. Chem. 272:21104), except that 0.6 M sucrose was used in the homogenization medium instead of 0.6 M mannitol (Daum et al., 1982 J. Biol. Chem. 257:13028). The resulting preparations were maintained on ice and were suspended in 0.6 M mannitol 20 mM HEPES (K+) (pH 6.8), containing 0.75 mg/ml BSA and 0.1 mM EGTA. Protein concentration was determined by a reduced volume Biuret method in which 50 μl of the final preparation were solubilized by adding an equal volume of 10% deoxycholate (Na+), with 0.4 ml of Biuret reagent added to the resulting mixture. BSA was employed as the standard.
Unless otherwise noted, mitochondria were incubated at 1 mg protein/ml and at approximately 25° C. in a medium that contained 0.6 M mannitol, 10 mM Pi (K+), 10 mM Hepes (TEA+), pH 7.2, plus 1 mM ethanol as an oxidizable substrate. Compounds having a low solubility in water were added from stock solutions prepared in methanol or DMSO. Ca2+ transport and membrane potential were monitored using the indicating dyes antipyrylazo III (ΔA720-790) and safranin O (ΔA511-533), respectively (Akerman et al., 1976 FEBS Lett. 68:191; Scarpa et al., 1978 Biochem. 17:1378). An SLM Aminco DW-2C spectrophotometer operated in the dual wavelength mode was employed for these purposes. The same instrument, operated in split beam mode, was used to monitor mitochondrial swelling as a decrease in apparent absorbance of mitochondrial suspensions at 540 nm. Oxygen consumption data were obtained using a Clark-type electrode in parallel experiments. Atomic absorption spectroscopy was utilized to monitor the transport of other cations by yeast mitochondria. Briefly, samples were taken at appropriate times and the mitochondria were rapidly sedimented in a microcentrifuge. After carefully removing supernatants, the pellets were solubilized with 2 N percholoric acid (overnight) and centrifuged a second time. The resulting supernatants were diluted with an appropriate volume of distilled water and the concentration of the cation in question was subsequently determined.

[2] = test system: isolated yeast mitochondria; experiment: Ca2+ transport in isolated yeast mitochondria expressing aequorin (luminescence); format: biochemical, Saccharomyces cerevisiae; details: for Rate of increase in matrix Ca^2+ concentration / % of Control: external free Ca^2+ 0.8 μM, agent 1 μM; for Rate of increase in matrix Ca^2+ concentration: triplicate; for % of Control: rate of increase in matrix Ca^2+
Description: For preculture, the transformant was inoculated into 50 ml of SC-U plus 2% glucose, and incubated in an air shaker at 180 rpm and 30° C. At 24 hr, the preculture was transferred to 500 ml of a medium containing 1% yeast extract, 2% peptone, 2% lactate, 1% galactose, 0.012% adenine, pH 5 w/NaOH, and growth was continued under conditions which were otherwise the same. Cells were harvested after an additional 24 hr, spheroplasts were prepared using zymolyase, and mitochondria were isolated by the method of Daum et al. (1982) as previously described (Jung et al., 1997). The final pellet was resuspended at ˜20 mg protein/ml in 0.6 M mannitol, 20 mM HEPES (K^+ salt, pH 6.8). Apoaequorin in the intact or disrupted mitochondria was reconstituted by incubation with coelenterazine as described above for cells.
For most experiments, the mitochondria were present at 0.4 mg protein/ml in a standard medium that contained 0.3 M KCl, 20 mM HEPES, (K^+ salt, pH 7.10), 10 mM KH2PO4, 2 mM EGTA, and 2 mM MgCl2. Other additions are described in greater detail below. Ca^2+ buffers were formed by adding various amounts of CaCl2 to this EGTA containing medium. The free Ca^2+ concentrations which resulted were calculated using a computer program (Brooks et al., 1992 Anal. Biochem. 201:119).
Luminescence measurements were carried out in 6×50 mm culture tubes, using a total volume of 0.3 ml, and were started by injection of 5-20 μl of mitochondria or cells. A SAI model 3000 integrating photometer was employed, with AJD sampling at 0.4 seconds intervals driven by Asyst software. Values were transformed into corresponding Ca^2+ concentrations by computer assisted calculations based upon published calibration methods (Allen et al., 1977 Science 195:996; Brini et al., 1995 J. Biol. Chem. 270:9896). For each value, the ratio of observed luminescence (L) to the potential luminescence remaining (Lmax) was calculated, and compared to a calibration curve which relates this ratio to the free Ca^2+ concentration. Thus, complete calibrated progress curves were generated. The total luminescence available initially (Ltotal) must be known and was determined in separate experiments, wherein a saturating Ca^2+ concentration (20 μM) is employed to discharge the aequorin completely. This value allows Lmax to be calculated at any time, as Ltotal minus the sum of luminescence that already occurred.
The calibration data were obtained at an ionic strength of 335 mM and in the presence of 1 mM Mg^2+, to mimic conditions in the mitochondrial matrix, because both factors influence the affinity of aequorin for Ca2+ (Cobbold et al., 1987 Biochem. J. 248:313). Luminescence values were corrected for low background values that are obtained when Ca^2+ is absent before conducting further calculations.

Row | Compound | influence on activity of the transporter in yeast mitochondria [2] | Rate of increase in matrix Ca^2+ concentration [2] | % of Control [2] [%] | also measured
1 | N#CC(C#N)=NNc1cccc(Cl)c1 [CCP, carbonyl cyanide m-chlorophenylhydrazone] | – | – | – | activation of ETH 129 mediated Ca2+ transport [1]: rate enhancement increasing progressively as the CCP concentration rose to 5 μM
2 | O=C(O)CN(CCOCCOCCN(CC(=O)O)CC(=O)O)CC(=O)O [EGTA] | – | – | – | effect on the depression of ΔΨ produced by ETH 129 plus Ca2+ (yeast mitochondria): reversed
3 | CO[C@@H]1C[C@@H](C[C@H]2CC[C@H](C)[C@H]([C@@H](C)C(=O)O)O2)O[C@]2(O[C@](C)([C@H]3CC[C@@](C)([C@@H]4O[C@@H]([C@H]5O[C@@](O)(CO)[C@H](C)C[C@@H]5C)C[C@@H]4C)O3)C[C@H]2C)[C@@H]1C [Nigericin] | not influenced | 2.17 ± .12 nM/s | 111 | –
4 | N.N.N.N.N.N.N.N.N.N.N.N.N.N.[Cl-].[Cl-].[Cl-].[Cl-].[Cl-].[Cl-].[O-2].[O-2].[Ru+3].[Ru+3].[Ru+4] [Ruthenium red] | not influenced | 2.21 ± .23 nM/s | 113 | –
5 | CC(C)[C@@H]1NC(=O)[C@H](C)OC(=O)[C@@H](C(C)C)NC(=O)[C@@H](C(C)C)OC(=O)[C@H](C(C)C)NC(=O)[C@H](C)OC(=O)[C@@H](C(C)C)NC(=O)[C@@H](C(C)C)OC(=O)[C@H](C(C)C)NC(=O)[C@H](C)OC(=O)[C@@H](C(C)C)NC(=O)[C@@H](C(C)C)OC1=O [Valinomycin] | not influenced | 2.32 ± .31 nM/s | 118 | –
6 | C=C1[C@@H]2CC[C@H]3[C@]4(C)C[C@H](O[C@@H]5O[C@H](CO)[C@@H](OS(=O)(=O)O)[C@H](OS(=O)(=O)O)[C@H]5OC(=O)CC(C)C)CC(C(=O)O)(C(=O)O)[C@H]4CC[C@]3(C2)[C@H]1O [carboxyatractyloside] | – | – | – | effect on the depression of ΔΨ produced by ETH 129 plus Ca2+ (yeast mitochondria): no effect
7 | C[C@H](CCC(=O)O)C[C@H](C)C[C@H](C)C(=O)/C=C(\O)[C@H](C)C[C@H](C)C/C=C/[C@@H](C)[C@@H](O)[C@@H](C)[C@@H](O)C[C@@H]1CC[C@@](C)([C@H]2CC[C@@](C)([C@@H](C)O)O2)O1 [ionomycin] | – | – | – | effect on ΔΨ, ionophore together with Ca2+ (yeast mitochondria; BSA absent, CaCl2 plus ionophore, FIG. 11C): not duplicated
